From the NIST ThermoML archive (doi:10.1016/j.fluid.2015.06.041)
Numbers after ± are expanded uncertainties.

Assay: xn = mol fraction of the nth substance listed
Conditions: 101 kPa, Liquid; for viscosity: Capillary tube (Ostwald / Ubbelohde) method; for speed of sound: Frequency=2 MHz, Linear variable-path acoustic interferometer; for mass density: Vibrating tube method

NCCO [2-aminoethan-1-ol] + C1COCCO1
Conditions	mass density, 298.15 K [kg/m3]	mass density, 308.15 K [kg/m3]	mass density, 318.15 K [kg/m3]	speed of sound, 298.15 K [m/s]	viscosity, 298.15 K [mPa·s]	viscosity, 308.15 K [mPa·s]	viscosity, 318.15 K [mPa·s]
x2 = 0	1011.79 ± 0.24	1004.68 ± 0.23	998.15 ± 0.23	1716.8 ± 2	18.95 ± 0.58	11.96 ± 0.37	7.913 ± 0.24
x2 = 0.0597	1015.53 ± 0.23	1007.5 ± 0.22	1000.35 ± 0.22	1696.8 ± 2	16.05 ± 0.49	10.32 ± 0.32	6.94 ± 0.21
x2 = 0.1251	1018.05 ± 0.21	1010.07 ± 0.21	1001.77 ± 0.2	1677.7 ± 1.9	13.39 ± 0.41	8.772 ± 0.27	6.01 ± 0.18
x2 = 0.1969	1020.39 ± 0.2	1011.65 ± 0.19	1003.06 ± 0.19	1654.2 ± 1.9	10.97 ± 0.34	7.34 ± 0.23	5.132 ± 0.16
x2 = 0.276	1022.47 ± 0.18	1013.21 ± 0.18	1004.08 ± 0.17	1626.7 ± 1.8	8.798 ± 0.27	6.031 ± 0.18	4.321 ± 0.13
x2 = 0.3639	1024.23 ± 0.17	1014.47 ± 0.16	1004.75 ± 0.16	1593.6 ± 1.8	6.892 ± 0.21	4.851 ± 0.15	3.555 ± 0.11
x2 = 0.4618	1025.64 ± 0.15	1015.23 ± 0.15	1004.92 ± 0.14	1557.5 ± 1.7	5.249 ± 0.16	3.804 ± 0.12	2.867 ± 0.088
x2 = 0.5716	1026.41 ± 0.14	1015.49 ± 0.14	1005.06 ± 0.13	1517.9 ± 1.7	3.868 ± 0.12	2.898 ± 0.089	2.255 ± 0.069
x2 = 0.6958	1027.09 ± 0.13	1015.74 ± 0.12	1004.96 ± 0.12	1471.8 ± 1.6	2.739 ± 0.084	2.132 ± 0.065	1.719 ± 0.053
x2 = 0.8373	1027.58 ± 0.12	1016.22 ± 0.12	1005.1 ± 0.11	1417.1 ± 1.5	1.849 ± 0.056	1.506 ± 0.046	1.266 ± 0.039

NCCN [ethane-1,2-diamine] + C1COCCO1
Conditions	mass density, 298.15 K [kg/m3]	mass density, 308.15 K [kg/m3]	mass density, 318.15 K [kg/m3]	speed of sound, 298.15 K [m/s]	viscosity, 298.18 K [mPa·s]	viscosity, 308.15 K [mPa·s]	viscosity, 318.15 K [mPa·s]
x2 = 0	894.79 ± 0.23	885.63 ± 0.23	867.62 ± 0.24	1670.8 ± 2	1.276 ± 0.039	1.107 ± 0.034	0.9445 ± 0.029
x2 = 0.08	907.17 ± 0.22	897.75 ± 0.23	880.1 ± 0.23	1625.9 ± 1.9	1.263 ± 0.039	1.092 ± 0.034	0.9318 ± 0.029
x2 = 0.1636	919.48 ± 0.21	909.85 ± 0.21	892.74 ± 0.21	1585.3 ± 1.8	1.25 ± 0.038	1.078 ± 0.033	0.9205 ± 0.028
x2 = 0.2511	931.76 ± 0.19	921.06 ± 0.19	905.51 ± 0.2	1546.2 ± 1.8	1.239 ± 0.038	1.066 ± 0.033	0.9111 ± 0.028
x2 = 0.3428	944.28 ± 0.18	934.33 ± 0.18	918.46 ± 0.18	1506.8 ± 1.7	1.228 ± 0.038	1.053 ± 0.032	0.9021 ± 0.028
x2 = 0.385	949.92 ± 0.17	939.89 ± 0.17	924.35 ± 0.17	1488.8 ± 1.7	1.223 ± 0.037	1.048 ± 0.032	0.8983 ± 0.028
x2 = 0.5399	970.35 ± 0.15	959.96 ± 0.15	945.42 ± 0.15	1428.4 ± 1.6	1.206 ± 0.037	1.033 ± 0.032	0.8929 ± 0.027
x2 = 0.6461	984.1 ± 0.1	973.48 ± 0.14	959.55 ± 0.14	1395.1 ± 1.6	1.197 ± 0.037	1.026 ± 0.031	0.8913 ± 0.027
x2 = 0.7578	998.37 ± 0.13	987.59 ± 0.13	974.27 ± 0.13	1369.6 ± 1.5	1.189 ± 0.036	1.019 ± 0.031	0.8918 ± 0.027
x2 = 0.8756	1013.03 ± 0.12	1002.04 ± 0.12	989.43 ± 0.12	1353.7 ± 1.5	1.182 ± 0.036	1.016 ± 0.031	0.8902 ± 0.027
